Experimental findings from PubChem BioAssay (NCI) are described below.

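Assay format: 96-well plates, 48-hour exposure. Definition used: TGI = concentration required for complete inhibition of growth.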 A value given as a limit tells only on which side of the number the result lay.

Test systems include 786-0 renal; CAKI-1 renal; EKVX NSCLC; HCT-15 colon; LOX IMVI melanoma; MCF7 breast; MOLT-4 leukemia; NCI-H226 lung; NCI-H23 lung; NCI-H522 lung; OVCAR-5 ovarian; RPMI-8226 leukemia; RXF 393 renal; SF-295 CNS; U251 CNS; UACC-257 melanoma; UACC-62 melanoma; K-562 leukemia.
Assay in all cases: NCI anticancer screen, dose series, 48 h

Consider `c1ccc2c(c1)nc1n2CNCC1`, for which the TGI in the test on 786-0 renal was over 100 µM; in the test on CAKI-1 renal, over 100 µM; in the test on EKVX NSCLC it was over 100 µM; in the test on HCT-15 colon, over 100 µM; in the test with LOX IMVI melanoma, 73.3 µM; in the test with MCF7 breast, over 100 µM. In addition, the TGI with MOLT-4 leukemia, in the test on NCI-H226 lung, in the test with NCI-H23 lung, with NCI-H522 lung, in the test with OVCAR-5 ovarian and in the test on RPMI-8226 leukemia was over 100 µM each time. Moreover, the TGI with RXF 393 renal, in the test on SF-295 CNS, with U251 CNS, with UACC-257 melanoma and in the test on UACC-62 melanoma was over 100 µM in each case.
Regarding `O=C1NNC(=O)C2C3c4ccccc4C(c4ccccc43)C12` (stereo not given), the TGI with 786-0 renal, with CAKI-1 renal, with EKVX NSCLC, in the test with HCT-15 colon, in the test with K-562 leukemia and in the test on LOX IMVI melanoma was over 100 µM in each case. The TGI in the test on MCF7 breast, with MOLT-4 leukemia, in the test with NCI-H226 lung, with NCI-H23 lung, with OVCAR-5 ovarian and in the test on RPMI-8226 leukemia was over 100 µM each time. The TGI in the test with RXF 393 renal, in the test with SF-295 CNS, in the test with U251 CNS, in the test with UACC-257 melanoma and with UACC-62 melanoma was over 100 µM in each case.
For `O=C(c1ccccc1)c1c2ccccn2c2cccc[n+]12`, the TGI in the test with 786-0 renal, in the test on CAKI-1 renal, in the test with EKVX NSCLC, in the test on HCT-15 colon, in the test on K-562 leukemia and in the test with LOX IMVI melanoma was over 100 µM throughout. The TGI with MCF7 breast, in the test with MOLT-4 leukemia, with NCI-H226 lung, with OVCAR-5 ovarian, in the test with RPMI-8226 leukemia and in the test with RXF 393 renal was over 100 µM throughout. For the same compound, the TGI in the test with SF-295 CNS, in the test with U251 CNS, with UACC-257 melanoma and in the test on UACC-62 melanoma was over 100 µM each time.
Take `COc1ccccc1N1C(=O)/C(=C\c2cccc(Oc3ccccc3)c2)SC1c1ccccc1` (stereo not given): the TGI in the test with 786-0 renal, in the test on CAKI-1 renal, with EKVX NSCLC, in the test on HCT-15 colon, in the test with K-562 leukemia and with LOX IMVI melanoma was over 100 µM each time. Also, the TGI in the test on MCF7 breast is over 100 µM; in the test on MOLT-4 leukemia it was over 100 µM; in the test on NCI-H23 lung, 98.1 µM; in the test on NCI-H522 lung, over 100 µM; in the test with OVCAR-5 ovarian, over 100 µM; with RPMI-8226 leukemia it was over 100 µM. Besides, the TGI in the test with RXF 393 renal, in the test on SF-295 CNS, in the test on U251 CNS, in the test with UACC-257 melanoma and in the test with UACC-62 melanoma was over 100 µM each time.
With `Clc1ccc2c(NCCCCN=Cc3ccccc3)ccnc2c1`, the TGI in the test with 786-0 renal was 22.2 µM; in the test on EKVX NSCLC it was 43.7 µM; in the test with HCT-15 colon, 33.1 µM; in the test with K-562 leukemia it was over 100 µM; with LOX IMVI melanoma, over 100 µM; in the test with MCF7 breast, 28.6 µM. Besides, the TGI is 25.7 µM in the test with MOLT-4 leukemia; 20 µM with NCI-H226 lung; 25.1 µM with NCI-H23 lung; 24.5 µM in the test with NCI-H522 lung; 40.4 µM in the test on OVCAR-5 ovarian; over 100 µM in the test on RPMI-8226 leukemia. Moreover, the TGI with RXF 393 renal worked out at 16.6 µM; in the test on SF-295 CNS, 28 µM; in the test with U251 CNS it was 24.5 µM; in the test with UACC-257 melanoma, 26 µM.
For `COc1ccc(OC)c2c1C(=O)C(Cl)=C(N1CCN(CCOCCO)CC1)C2=O`, the TGI in the test on 786-0 renal is 13.3 µM; in the test with EKVX NSCLC, 35.5 µM; with HCT-15 colon, 18.4 µM; with K-562 leukemia, 4.24 µM; with MCF7 breast, 15 µM; in the test with MOLT-4 leukemia it was 32.8 µM. Besides, the TGI in the test on NCI-H226 lung turned out to be 39.5 µM; with NCI-H23 lung, 21.6 µM; in the test on NCI-H522 lung it was 20.9 µM; in the test on OVCAR-5 ovarian, 37.3 µM; in the test with RPMI-8226 leukemia, 26.5 µM; in the test with RXF 393 renal, 33.4 µM. For the same compound, the TGI with SF-295 CNS turned out to be 32.9 µM; in the test with U251 CNS it was 41.3 µM; in the test with UACC-257 melanoma, 33 µM; in the test on UACC-62 melanoma, 15.5 µM.
In the case of `CCOC(=O)Cn1sc2ncc([N+](=O)[O-])cc2c1=O`, the TGI is 30.6 µM with 786-0 renal; over 100 µM in the test with EKVX NSCLC; 31.2 µM with HCT-15 colon; 12.3 µM in the test with K-562 leukemia; 26.4 µM in the test with LOX IMVI melanoma; 35.3 µM with MCF7 breast. Besides, the TGI was 9.45 µM in the test with MOLT-4 leukemia; over 100 µM in the test with NCI-H226 lung; 39.3 µM in the test with NCI-H23 lung; 39.5 µM in the test with NCI-H522 lung; 38 µM in the test with OVCAR-5 ovarian; over 100 µM with RPMI-8226 leukemia. Moreover, the TGI in the test with RXF 393 renal amounted to 35.4 µM; in the test on SF-295 CNS, 34.8 µM; with UACC-257 melanoma, 31.6 µM; in the test on UACC-62 melanoma, 48.4 µM.
In the case of `S=C1Cc2c([nH]c3ccccc23)-c2ccccc2N1`, the TGI with 786-0 renal is over 100 µM; in the test with CAKI-1 renal, 79 µM; in the test on EKVX NSCLC, over 100 µM; in the test on K-562 leukemia, over 100 µM; with LOX IMVI melanoma, over 100 µM; in the test on MCF7 breast, over 100 µM. Moreover, the TGI in the test on MOLT-4 leukemia was over 100 µM; in the test with NCI-H226 lung, 89.5 µM; in the test on NCI-H23 lung it was over 100 µM; in the test on OVCAR-5 ovarian, over 100 µM; in the test with RPMI-8226 leukemia, over 100 µM; in the test on RXF 393 renal it was 46 µM. Also, the TGI in the test on SF-295 CNS, in the test on UACC-257 melanoma and with UACC-62 melanoma was over 100 µM throughout.
